# “Also recorded” adds a separate entry of the source.
# Columns and labels:
# FXR [1] = target: T1, FXR (Homo sapiens, UniProt Q96RI1); assay: GeneBLAzer cell-based FXR transactivation assay (FXR-UAS-bla HEK 293T cells)
# T1 construct: the Gal4 DBD was fused to the LBD of FXR in this assay
# T1 sequence (Q96RI1 262-486 limits assumed): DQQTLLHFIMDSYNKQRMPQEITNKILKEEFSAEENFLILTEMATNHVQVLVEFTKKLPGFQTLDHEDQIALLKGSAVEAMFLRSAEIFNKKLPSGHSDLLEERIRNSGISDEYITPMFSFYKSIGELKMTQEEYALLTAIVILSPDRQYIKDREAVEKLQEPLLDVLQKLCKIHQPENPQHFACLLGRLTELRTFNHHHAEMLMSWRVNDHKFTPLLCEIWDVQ
# Procedure: To investigate the cellular activities of the novel berberine derivatives, we used a GeneBLAzer FXR cell-based assay, which detects the levels of a β-lactamase reporter controlled by a promoter containing the binding site of the DNA binding domain (DBD) of the GAL4 transcription factor; the Gal4 DBD was fused to the LBD of FXR in this assay. In typical test for agonists, DMSO (vehicle and negative control), 10 μM GW4064 (positive control), and titrations of GW4064, LCA or the 24 newly synthesized novel berberien derivatives analogs were mixed with GeneBLAzer FXR-UAS-bla HEK 293T cells. Reporter assays were performed after a 16 h incubation. […] For the experiments to evaluate the antagonistic activity, titrations of compounds were tested in the presence of 400 nM GW4064. […]
# FXR transactivation assay was performed using GeneBLAzer FXR-UAS-bla HEK 293T cells (Invitrogen) as previously described with minor modifications. […] Plates were then incubated in the dark for 90 min at room temperature before measuring the fluorescent emissions at 460 nm and 535 nm (using excitation at 400 nm) with an Envision plate reader with bottom read capacity. […] The % Activation was calculated using Eq. 2.
# [formula] […] The % Inhibition was calculated using Eq. 3. […]
# FXR [2] = target: T2, FXR (Homo sapiens, UniProt Q96RI1); assay: FXR luciferase reporter assay, transient transfection with a synthetic FXR responsive reporter plasmid in HEK293 cells; assay type: cell-based
# T2 construct: expressed in transfected cells; host or cells: HEK293 (transient)
# T2 sequence (Q96RI1 1-486): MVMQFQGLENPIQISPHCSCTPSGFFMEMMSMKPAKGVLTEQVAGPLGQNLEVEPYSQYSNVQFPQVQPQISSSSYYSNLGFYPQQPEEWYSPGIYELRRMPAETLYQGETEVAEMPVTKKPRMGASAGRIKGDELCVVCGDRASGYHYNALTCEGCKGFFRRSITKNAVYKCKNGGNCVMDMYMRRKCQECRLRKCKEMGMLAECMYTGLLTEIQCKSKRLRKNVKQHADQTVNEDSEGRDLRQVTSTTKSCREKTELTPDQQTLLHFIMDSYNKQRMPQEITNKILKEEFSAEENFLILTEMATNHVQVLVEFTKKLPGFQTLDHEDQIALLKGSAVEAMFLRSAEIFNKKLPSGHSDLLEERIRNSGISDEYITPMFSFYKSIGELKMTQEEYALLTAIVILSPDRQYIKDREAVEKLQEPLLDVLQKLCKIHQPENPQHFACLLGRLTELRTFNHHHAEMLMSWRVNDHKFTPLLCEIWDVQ
# T2 sequence (P19793 1-462 partner): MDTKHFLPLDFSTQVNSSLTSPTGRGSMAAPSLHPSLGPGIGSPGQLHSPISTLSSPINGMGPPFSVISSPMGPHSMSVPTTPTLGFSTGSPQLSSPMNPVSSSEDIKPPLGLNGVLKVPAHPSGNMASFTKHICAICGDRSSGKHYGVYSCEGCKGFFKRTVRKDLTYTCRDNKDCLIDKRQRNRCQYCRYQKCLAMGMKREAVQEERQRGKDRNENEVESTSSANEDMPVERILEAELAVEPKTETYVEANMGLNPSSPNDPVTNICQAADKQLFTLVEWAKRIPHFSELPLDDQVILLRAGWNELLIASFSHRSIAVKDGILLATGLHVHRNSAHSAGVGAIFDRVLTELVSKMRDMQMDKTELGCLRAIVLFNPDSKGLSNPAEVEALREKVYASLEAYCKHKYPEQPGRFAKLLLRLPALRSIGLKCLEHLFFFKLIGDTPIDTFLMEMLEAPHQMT
# Procedure: Effect of berberine derivatives and γ-aminobutyric acid derivative on FXR inhibition was initially assessed using transient transfections with a synthetic FXR responsive reporter plasmid. HEK 293 Cells were treated with vehicle alone or 100 μM CDCA with or without compounds, as indicated. Results are luciferase expression normalized using the β-gal internal control.
# TGR5-reporting activity was evaluated by luciferase assay. Treatments were performed in quadruplicate and normalized with β-galactosidase. HEK293 cells were transfected with FXR and RXRα, and FXRE-containing luciferase construct. Cells were treated with 10 μM of indicated compounds; luciferase was measured and normalized with β-galactosidase.
# To evaluate TGR5 activity of compounds, cells were transfected 100 ng pCRE-luc reporter along with pCMV-galactosidase (10 ng) as an internal control for normalization of transfection efficiency. Plasmids were complexed with […] of Fugene 6 reagent (Promega, Madison, Wis.) in OptiMEM (Invitrogen, Carlsbad, Calif.) and cells were transfected for 18 h. The following day, cells were treated with vehicle and appropriate ligand as indicated. Luciferase and β-galactosidase activities were assayed 6 h later using Luciferase Assay System (Promega) and Galacto-Star (Applied Biosystems, Foster City, Calif.) reagents, respectively, and a MLX luminometer (Dynex Technologies, Chantilly, Va.). To evaluate the FXR activity of compounds, HEK293 cells were transfected with 25 ng of farnesoid X receptor expression plasmid (pCMX-hFXR), 25 ng of retinoid X receptor expression plasmid (pCMXhRXR), 100 ng of reporter plasmid (pEcREx6-TK-Luc), and 10 ng of pCMV-b-galactosidase as an internal control in each well, using Fugene 6 reagent. Approximately 18 h after transfection, cells were incubated for 12 h with different concentrations of each.
Structure (SMILES),FXR antagonist activity in cell-based FXR transactivation assay (FXR [1]),melting point,"Inhibition of FXR activation by CDCA (FXR antagonism) (FXR [2]; CDCA 100 μM, compounds 10 μM)","FXR activity of compound alone (agonism) (FXR [2]; compound alone, compared with GW4064)"
"COc1ccc2cc3[n+](cc2c1NCc1cccc(B(O)O)c1)CCc1cc2c(cc1-3)OCO2 [DY323, Berberine-Phenylboronic Hybrid]",identified as FXR antagonists,228.7 °C,–,–
O=C(O)CCCN1C(=O)c2ccccc2C1=O [DY419],–,–,strongly inhibited FXR activation; also recorded: activated FXR receptor to exert FXR antagonistic biological function,no effect on FXR activity
"COc1ccc2cc3[n+](cc2c1NCCc1ccc(O)c(O)c1)CCc1cc2c(cc1-3)OCO2 [DY322, Berberine-Dopamine Hybrid]",identified as FXR antagonists,198.4 °C,–,–
